Patent US20060069132A1, “Azolecarboxamide herbicides” (priority 2004, published 2006)

Columns and labels:
barnyardgrass [1] = experiment: Test B pre-/postemergence herbicide test; type: in vivo, Echinochloa crus-galli; conditions: for Barnyardgrass plant response rating: Postemergence, scale 0 (no effect) to 100 (complete control)
How it was run: (§1)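 Response was scored visually 13 to 15 days after treatment against untreated greenhouse controls, 0 meaning no effect and 100 complete control. Formulations (solvent mixture plus surfactant) went onto soil after planting, onto foliage of 1- to 4-leaf plants, and onto 2-leaf plants in a flooded paddy set including rice and barnyardgrass.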

Surinam grass = experiment: Test B pre-/postemergence herbicide test; type: in vivo, Urochloa decumbens
How it was run: (§2)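 Flooded paddy rice and barnyardgrass were treated at the 2-leaf stage; upland plantings received compound either on sown seed or on 1- to 4-leaf seedlings. All were kept 13–15 days in a greenhouse and scored visually, 0–100, relative to untreated plants.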

cocklebur = experiment: Test B pre-/postemergence herbicide test; type: in vivo, Xanthium strumarium
How it was run: as §1

corn = experiment: Test B pre-/postemergence herbicide test; type: in vivo, Zea mays
How it was run: as §2

large crabgrass = experiment: Test B pre-/postemergence herbicide test; type: in vivo, Digitaria sanguinalis
How it was run: as §2

giant foxtail = experiment: Test B pre-/postemergence herbicide test; type: in vivo, Setaria faberi
How it was run: as §2

lambsquarters = experiment: Test B pre-/postemergence herbicide test; type: in vivo, Chenopodium album
How it was run: as §2

morningglory = experiment: Test B pre-/postemergence herbicide test; type: in vivo, Ipomoea coccinea
How it was run: as §1

pigweed = experiment: Test B pre-/postemergence herbicide test; type: in vivo, Amaranthus retroflexus
How it was run: as §2

velvetleaf = experiment: Test B pre-/postemergence herbicide test; type: in vivo, Abutilon theophrasti
How it was run: as §2

blackgrass [2] = experiment: Test B postemergence herbicide test; type: in vivo, Alopecurus myosuroides
How it was run: (§3)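 Visual control ratings, 0–100 versus untreated controls, taken after 13 to 15 days in the greenhouse. Blackgrass received a postemergence spray at the 1- to 4-leaf stage (2–18 cm); ducksalad, umbrella sedge and barnyardgrass were flooded-paddy treated at 2 leaves.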

wheat [3] = experiment: Test B postemergence herbicide test; type: in vivo, Triticum aestivum; set-up: key to Wheat plant response rating: 0 = no effect, 100 = complete control
How it was run: (§4)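 Visual ratings, 0 (no effect) to 100 (complete control), made versus controls after 13–15 d greenhouse. Paddy plants treated at 2-leaf stage; postemergence plants at 1- to 4-leaf stage, 2–18 cm tall.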

wild oat [4] = experiment: Test B postemergence herbicide test; type: in vivo, Avena fatua
How it was run: as §4

rice = experiment: Test B flooded paddy test; type: in vivo, Oryza sativa; conditions: 1000 g ai/ha, scale 0 to 100 (0 no effect, 100 complete control)
How it was run: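 After treating 2-leaf paddy plants or 2–18 cm postemergence plants (1 to 4 leaves) with formulated chemical, researchers kept them in a greenhouse for 13–15 days. Effects were judged visually versus controls: 0 indicates none, 100 total control.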

[5] = tested on: small flower umbrella sedge; experiment: Test B flooded paddy test; type: in vivo, Cyperus difformis; conditions: 1000 g ai/ha, scale 0 to 100 (0 no effect, 100 complete control)
How it was run: as §3

ducksalad = experiment: Test B flooded paddy test; type: in vivo, Heteranthera limosa; conditions: 1000 g ai/ha, scale 0 to 100 (0 no effect, 100 complete control)
How it was run: as §3

barnyardgrass [6] = experiment: Test B flooded paddy test; type: in vivo, Echinochloa crus-galli; conditions: 1000 g ai/ha, scale 0 to 100 (0 no effect, 100 complete control)
How it was run: as §3

winter barley = experiment: Test C postemergence herbicide test; type: in vivo, Hordeum vulgare
Experimental: (§5) At the same time, plants selected from these crop and weed species and also winter barley (Hordeum vulgare L.), blackgrass (Alopecurus myosuroides Huds.), canarygrass (Phalaris minor Retz.), chickweed (Stellaria media (L.) Vill.), downy bromegrass (Bromus tectorum L.), green foxtail (Setaria viridis (L.) Beauv.), Italian ryegrass (Lolium multiflorum Lam.), wheat (Triticum aestivum L.), wild oat (Avenafatua L.) and windgrass (Apera spica-venti (L.) Beauv.) were treated with postemergence applications of some of the test chemicals formulated in the same manner. Plants ranged in height from 2 to 18 cm (1- to 4-leaf stage) for postemergence treatments. Plant species in the flooded paddy test consisted of rice (Oryza sativa), smallflower umbrella sedge (Cyperus difformis L.), ducksalad (Heteranthera limosa (Sw.) Willd.) and barnyardgrass (Echinochloa crus-galli (L.) Beauv.) grown to the 2-leaf stage for testing. Treated plants and controls were maintained in a greenhouse for 12 to 14 days, after which time all species were compared to controls and visually evaluated. Plant response ratings, summarized in Table C, are based on a scale of 0 to 100 where 0 is no effect and 100 is complete control. A dash (-) response means no test result.

blackgrass [7] = experiment: Test C postemergence herbicide test; type: in vivo, Alopecurus myosuroides
Experimental: as §5

canarygrass = experiment: Test C postemergence herbicide test; type: in vivo, Phalaris minor
Experimental: as §5

downy bromegrass = experiment: Test C postemergence herbicide test; type: in vivo, Bromus tectorum
Experimental: as §5

green foxtail = experiment: Test C postemergence herbicide test; type: in vivo, Setaria viridis
Experimental: as §5

Italian ryegrass = experiment: Test C postemergence herbicide test; type: in vivo, Lolium multiflorum
Experimental: as §5

wheat [8] = experiment: Test C postemergence herbicide test; type: in vivo, Triticum aestivum
Experimental: as §5

wild oat [9] = experiment: Test C postemergence herbicide test; type: in vivo, Avenafatua
Experimental: as §5

windgrass = experiment: Test C postemergence herbicide test; type: in vivo, Apera spica-venti
Experimental: as §5

[10] = 125 g ai/ha, 0 is no effect, 100 is complete control, preemergence
[11] = Postemergence, 500 g ai/ha, scale 0 (no effect) to 100 (complete control)
[12] = postemergence, 125 g ai/ha, scale 0 to 100
[13] = Postemergence, 500 g ai/ha, scale 0 to 100
[14] = Postemergence, 250 g ai/ha, scale 0 to 100, 0 no effect, 100 complete control
[15] = postemergence, 62 g ai/ha, scale 0 to 100
[16] = Postemergence, 500 g ai/ha, scale 0 to 100, 0 no effect, 100 complete control

Which “Plant response rating (0 to 100 scale), Barnyardgrass” value (barnyardgrass [1]; [10]) does the source give for `CN(C)C(=O)c1cccc(NC(=O)c2nn(C(C)(C)C)nc2Br)c1` [Compound 429] here?
The value was 100.

What about the “Barnyardgrass plant response rating” value (barnyardgrass [1]; 125 g ai/ha) of the same molecule?
Its value is 30.

And the “Barnyardgrass plant response rating” value (barnyardgrass [1]; 500 g ai/ha)?
Its value is 60.

And the “Plant response rating (0 to 100 scale), Surinam Grass” value (Surinam grass; [10])?
The value was 70.

And the “Surinam Grass plant response rating” value (Surinam grass; [11])?
The value was 30.

What about the “Surinam Grass plant response rating” value (Surinam grass; [12]) of the same molecule?
Its value is 20.

And the “Plant response rating (0 to 100 scale), Cocklebur” value (cocklebur; [10])?
The value was 60.

And the “Cocklebur plant response rating” value (cocklebur; [11])?
The value was 70.

What about the “Cocklebur plant response rating” value (cocklebur; [12]) of the same molecule?
Its value is 60.

What about the “Plant response rating (0 to 100 scale), Corn” value (corn; [10]) of the same molecule?
The value was 40.

And the “Corn plant response rating” value (corn; [11])?
Its value is 40.

What about the “Corn plant response rating” value (corn; [12]) of the same molecule?
Its value is 30.

What about the “Plant response rating (0 to 100 scale), Crabgrass, Large” value (large crabgrass; [10]) of the same molecule?
The value was 100.

And the “Crabgrass, Large plant response rating” value (large crabgrass; [11])?
The value was 40.

What about the “Crabgrass, Large plant response rating” value (large crabgrass; [12]) of the same molecule?
The value was 30.

What about the “Plant response rating (0 to 100 scale), Foxtail, Giant” value (giant foxtail; [10]) of the same molecule?
The value was 90.

And the “Foxtail, Giant plant response rating” value (giant foxtail; [11])?
The value was 40.

And the “Foxtail, Giant plant response rating” value (giant foxtail; [12])?
Its value is 30.

And the “Plant response rating (0 to 100 scale), Lambsquarters” value (lambsquarters; [10])?
The value was 100.

What about the “Lambsquarters plant response rating” value (lambsquarters; [11]) of the same molecule?
Its value is 70.

What about the “Lambsquarters plant response rating” value (lambsquarters; [12]) of the same molecule?
The value was 50.

What about the “Plant response rating (0 to 100 scale), Morningglory” value (morningglory; [10]) of the same molecule?
The value was 90.

What about the “Morningglory plant response rating” value (morningglory; [11]) of the same molecule?
Its value is 80.

And the “Morningglory plant response rating” value (morningglory; [12])?
The value was 70.

And the “Plant response rating (0 to 100 scale), Pigweed” value (pigweed; [10])?
The value was 100.

And the “Pigweed plant response rating” value (pigweed; [11])?
Its value is 50.

And the “Pigweed plant response rating” value (pigweed; [12])?
The value was 40.

What about the “Plant response rating (0 to 100 scale), Velvetleaf” value (velvetleaf; [10]) of the same molecule?
Its value is 80.

What about the “Velvetleaf plant response rating” value (velvetleaf; [11]) of the same molecule?
Its value is 60.

And the “Velvetleaf plant response rating” value (velvetleaf; [12])?
The value was 50.

And the “Blackgrass plant response rating” value (blackgrass [2]; [11])?
Its value is 50.

What about the “Blackgrass plant response rating” value (blackgrass [2]; [12]) of the same molecule?
Its value is 20.

And the “Wheat plant response rating” value (wheat [3]; 500 g ai/ha, scale 0 to 100, 0 no effect, 100 complete control, preemergence)?
Its value is 100.

And the “Wheat plant response rating” value (wheat [3]; [11])?
The value was 40.

And the “Wheat plant response rating” value (wheat [3]; [12])?
Its value is 20.

And the “Oat, Wild plant response rating” value (wild oat [4]; [11])?
Its value is 40.

And the “Oat, Wild plant response rating” value (wild oat [4]; [12])?
Its value is 30.

And the “Rice plant response rating” value (rice)?
The value was 70.

And the “Sedge, Umbrella plant response rating” value [5]?
The value was 90.

What about the “Ducksalad plant response rating” value (ducksalad) of the same molecule?
Its value is 60.

What about the “Barnyardgrass plant response rating” value (barnyardgrass [6]) of the same molecule?
The value was 100.

What about the “Barley, Winter plant response rating” value (winter barley; [13]) of the same molecule?
The value was 40.

And the “Plant response rating, Barley, Winter” value (winter barley; Postemergence, 125 g ai/ha, scale 0 to 100, 0 no effect, 100 complete control)?
The value was 35.

What about the “Plant response rating, Barley, Winter” value (winter barley; [14]) of the same molecule?
Its value is 35.

And the “Plant response rating, Barley, Winter” value (winter barley; postemergence, 62 g ai/ha, scale 0 to 100 (0 no effect, 100 complete control))?
The value was 25.

And the “Blackgrass plant response rating” value (blackgrass [7]; [13])?
The value was 65.

And the “Plant response rating, Blackgrass” value (blackgrass [7]; [14])?
The value was 60.

What about the “Plant response rating, Blackgrass” value (blackgrass [7]; [12]) of the same molecule?
Its value is 60.

And the “Plant response rating, Blackgrass” value (blackgrass [7]; [15])?
The value was 45.

What about the “Plant response rating, Canarygrass” value (canarygrass; [14]) of the same molecule?
The value was 55.

What about the “Plant response rating, Canarygrass” value (canarygrass; [16]) of the same molecule?
Its value is 60.

And the “Plant response rating, Canarygrass” value (canarygrass; [12])?
The value was 40.

And the “Plant response rating, Canarygrass” value (canarygrass; [15])?
The value was 20.

And the “Plant response rating, Bromegrass, Downy” value (downy bromegrass; [14])?
The value was 45.

And the “Plant response rating, Bromegrass, Downy” value (downy bromegrass; [16])?
Its value is 55.

What about the “Plant response rating, Bromegrass, Downy” value (downy bromegrass; [12]) of the same molecule?
Its value is 40.

What about the “Plant response rating, Bromegrass, Downy” value (downy bromegrass; [15]) of the same molecule?
The value was 40.

And the “Plant response rating, Foxtail, Green” value (green foxtail; [14])?
Its value is 55.

And the “Plant response rating, Foxtail, Green” value (green foxtail; [16])?
Its value is 65.

And the “Plant response rating, Foxtail, Green” value (green foxtail; [12])?
Its value is 50.

What about the “Plant response rating, Foxtail, Green” value (green foxtail; [15]) of the same molecule?
Its value is 40.

And the “Plant response rating, Ryegrass, Italian” value (Italian ryegrass; [16])?
The value was 60.

And the “Plant response rating, Ryegrass, Italian” value (Italian ryegrass; [12])?
Its value is 50.

And the “Plant response rating, Ryegrass, Italian” value (Italian ryegrass; [15])?
Its value is 45.

And the “Plant response rating, Wheat” value (wheat [8]; [16])?
The value was 45.

What about the “Plant response rating, Wheat” value (wheat [8]; [12]) of the same molecule?
Its value is 35.

And the “Plant response rating, Wheat” value (wheat [8]; [15])?
Its value is 25.

And the “Plant response rating, Oat, Wild” value (wild oat [9]; [16])?
The value was 65.

What about the “Plant response rating, Oat, Wild” value (wild oat [9]; [12]) of the same molecule?
Its value is 60.

And the “Plant response rating, Oat, Wild” value (wild oat [9]; [15])?
The value was 45.

What about the “Plant response rating, Windgrass” value (windgrass; [16]) of the same molecule?
Its value is 60.

What about the “Plant response rating, Windgrass” value (windgrass; [12]) of the same molecule?
Its value is 40.

What about the “Plant response rating, Windgrass” value (windgrass; [15]) of the same molecule?
The value was 40.
